The source of these data is ChEMBL document CHEMBL3784917, “Recent Progress in Histone Demethylase Inhibitors” (J Med Chem, 2016).

Assay [1] deals with T1, Lysine-specific histone demethylase 1A (Homo sapiens, UniProt O60341).
The subject of a further assay is HeLa. In words: Antiproliferative activity against human HeLa cells assessed as reduction in cell viability after 72 hrs by MTT assay. Format: functional, cell-based.
Another assay deals with MDA-MB-231. In words: Antiproliferative activity against human MDA-MB-231 cells assessed as reduction in cell viability after 72 hrs by MTT assay. Format: functional, cell-based. The conditions noted are these: MDA-MB-231, 72 h. For orientation: Tetrazolium assays rely on reduction of a dye to a coloured formazan, in cell work by metabolically active cells.
Assay [2] concerns the target T1, Lysine-specific histone demethylase 1A. Briefly: Inhibition of KDM1A in human THP1 cells assessed as inhibition of CD11b expressing cells incubated for 4 days by DAPI staining based flow cytometry. Format: cell-based, THP-1. Background: Flow cytometry measures light scatter and fluorescence of single cells or particles in a stream.
The target is the same in assay [3]. In words: Inhibition of full length human KDM1A expressed in Escherichia coli using biotin-H3K4me1 as substrate incubated for 1 hr by TR-FRET assay.
Assay [4] addresses T2, Amine oxidase [flavin-containing] B (Homo sapiens, UniProt P27338).
T2 sequence (P27338 whole entry): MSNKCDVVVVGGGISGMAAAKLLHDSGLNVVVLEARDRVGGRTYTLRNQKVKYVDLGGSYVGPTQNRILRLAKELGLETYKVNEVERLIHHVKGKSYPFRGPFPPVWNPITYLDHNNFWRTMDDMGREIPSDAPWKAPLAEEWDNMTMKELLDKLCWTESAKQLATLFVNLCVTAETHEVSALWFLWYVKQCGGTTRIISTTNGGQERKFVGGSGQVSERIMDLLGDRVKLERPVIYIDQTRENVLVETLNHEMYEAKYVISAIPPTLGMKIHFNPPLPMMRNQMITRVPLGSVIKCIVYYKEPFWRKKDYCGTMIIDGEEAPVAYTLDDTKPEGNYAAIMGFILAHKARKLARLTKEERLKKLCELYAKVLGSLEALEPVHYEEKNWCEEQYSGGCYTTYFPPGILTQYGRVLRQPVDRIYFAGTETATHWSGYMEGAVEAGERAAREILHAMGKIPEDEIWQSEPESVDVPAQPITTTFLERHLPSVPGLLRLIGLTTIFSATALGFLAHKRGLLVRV
In words: Inhibition of human recombinant MAO-B expressed in Pichia pastoris preincubated for 15 mins followed by substrate addition measured after 30 mins by MAO-Glo assay.

Assay [5] addresses T3, Amine oxidase [flavin-containing] A (Homo sapiens, UniProt P21397).
T3 sequence (P21397 whole entry): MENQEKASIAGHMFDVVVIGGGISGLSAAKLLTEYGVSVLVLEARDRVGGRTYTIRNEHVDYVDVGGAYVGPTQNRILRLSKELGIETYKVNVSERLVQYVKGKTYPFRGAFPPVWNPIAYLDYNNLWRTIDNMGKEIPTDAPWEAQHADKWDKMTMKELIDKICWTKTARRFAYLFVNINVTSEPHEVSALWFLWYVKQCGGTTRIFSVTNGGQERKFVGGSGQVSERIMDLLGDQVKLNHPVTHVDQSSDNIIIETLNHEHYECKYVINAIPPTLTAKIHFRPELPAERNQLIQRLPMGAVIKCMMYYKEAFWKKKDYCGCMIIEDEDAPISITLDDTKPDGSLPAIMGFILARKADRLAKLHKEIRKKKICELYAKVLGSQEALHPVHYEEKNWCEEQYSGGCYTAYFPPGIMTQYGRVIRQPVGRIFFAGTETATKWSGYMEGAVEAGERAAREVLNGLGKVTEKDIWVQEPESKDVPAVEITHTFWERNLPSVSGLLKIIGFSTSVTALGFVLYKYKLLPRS
Briefly: Inhibition of human recombinant MAO-A expressed in Pichia pastoris preincubated for 15 mins followed by substrate addition measured after 30 mins by MAO-Glo assay.

The target of assay [6] is T1, Lysine-specific histone demethylase 1A. Briefly: Inhibition of human recombinant KDM1A expressed in Escherichia coli using H3K4me peptide substrate preincubated for 15 mins followed substrate addition measured after 12 mins by peroxidase coupled enzyme assay.
Assay [7] deals with T3, Amine oxidase [flavin-containing] A. In words: Inhibition of human recombinant MAO-A using 3-(2-Aminophenyl)-3-oxopropanamine as substrate preincubated for 15 mins followed by substrate addition measured after 1 hr by fluorescence microplate reader analysis.
Assay [8] addresses T2, Amine oxidase [flavin-containing] B. In words: Inhibition of human recombinant MAO-B using 3-(2-Aminophenyl)-3-oxopropanamine as substrate preincubated for 15 mins followed by substrate addition measured after 1 hr by fluorescence microplate reader analysis.
Assay [9] has as its target T1, Lysine-specific histone demethylase 1A. In words: Inhibition of recombinant human N-terminal GST-tagged KDM1A expressed in Escherichia coli using H3K4me2 as substrate preincubated for 15 mins followed by substrate addition measured after 1 hr by peroxidase coupled enzyme assay.

Broadly, the IC50 is the point on the concentration scale where inhibition reaches its midpoint.

The structures appear in SMILES notation.

Turning to `CSCCc1nc(-c2cc(N)ccc2Cl)oc1C`, the IC50 amounted to 10100 nM in assay [1], 1.2 nM in the assay with HeLa and 1.2 nM in the assay with MDA-MB-231.
On to `Cc1ccc(-c2cnc(NC[C@H]3CCNC3)nc2-c2ccc(C#N)cc2)cc1`, for which the IC50 in assay [2] and in [3] was < 10 nM each time.
Turning to `CN1CCN(c2ccc(C(=O)Nc3ccc([C@@H]4C[C@]4(N)CCc4ccccc4)cc3)cc2)CC1` (racemic), the values for the IC50 in assay [4], in assay [5] and in [6] were > 10000 nM, > 10000 nM and < 100 nM, respectively.
`CC(C)S(=O)(=O)Nc1cccc(-c2ccc([C@H]3C[C@@H]3N)cc2)c1`: the half-inhibitory concentration (IC50) in assay [7] is > 1000 nM; in [8], > 10000 nM; in assay [9] it was 70 nM.
